Results taken from ChEMBL document CHEMBL1142334, “Discovery of a novel class of selective human CB1 inverse agonists” (Bioorg Med Chem Lett, 2008).

What was measured:
Cannabinoid receptor 1 [1] = target: T1, Cannabinoid receptor 1 (Homo sapiens, UniProt P21554); test: Displacement of radioligand from human CB1 receptor expressed in HEK293 cells at 10 uM; format: cell-based
Cannabinoid receptor 1 [2] = target: T1, Cannabinoid receptor 1; test: Displacement of radioligand from human CB1 receptor expressed in HEK293 cells; format: cell-based
Cannabinoid receptor 2 = Cannabinoid receptor 2 (Homo sapiens, UniProt P34972); test: Displacement of radioligand from human CB2 receptor expressed in HEK293 cells; format: cell-based
Chain of Cannabinoid receptor 2 (P34972 whole entry): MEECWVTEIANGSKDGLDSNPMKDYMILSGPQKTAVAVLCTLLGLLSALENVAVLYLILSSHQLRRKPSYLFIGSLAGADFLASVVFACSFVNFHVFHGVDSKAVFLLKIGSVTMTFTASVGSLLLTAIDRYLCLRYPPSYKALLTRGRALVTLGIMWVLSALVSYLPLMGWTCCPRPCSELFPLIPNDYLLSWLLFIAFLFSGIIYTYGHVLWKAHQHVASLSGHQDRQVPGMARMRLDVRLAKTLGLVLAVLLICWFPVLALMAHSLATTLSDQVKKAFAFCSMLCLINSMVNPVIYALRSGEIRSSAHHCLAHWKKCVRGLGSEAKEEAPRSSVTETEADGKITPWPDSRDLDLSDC

Homo sapiens = organism: Homo sapiens; test: Selectivity ratio, Ki for human CB2 receptor to Ki for human CB1 receptor
Cannabinoid receptor 1 [3] = target: T1, Cannabinoid receptor 1; test: Inverse agonist activity at human CB1 receptor expressed in HEK293 EBNA cells by [35S]GTPgammaS incorporation assay; format: functional, cell-based

T1 sequence (P21554 whole entry): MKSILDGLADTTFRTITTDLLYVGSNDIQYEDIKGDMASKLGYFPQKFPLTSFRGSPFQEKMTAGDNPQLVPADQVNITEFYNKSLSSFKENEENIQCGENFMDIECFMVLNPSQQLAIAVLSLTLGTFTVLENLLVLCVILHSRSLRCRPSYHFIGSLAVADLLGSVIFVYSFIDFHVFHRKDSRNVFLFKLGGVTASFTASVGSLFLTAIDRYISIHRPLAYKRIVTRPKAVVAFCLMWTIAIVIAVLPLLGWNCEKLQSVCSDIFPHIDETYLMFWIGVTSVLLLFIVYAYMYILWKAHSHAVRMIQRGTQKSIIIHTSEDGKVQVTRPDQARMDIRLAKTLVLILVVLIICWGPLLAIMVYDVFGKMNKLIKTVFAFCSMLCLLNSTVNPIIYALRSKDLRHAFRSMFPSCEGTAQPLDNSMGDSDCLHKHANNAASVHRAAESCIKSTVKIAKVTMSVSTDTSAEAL

| Compound | inhibition (Cannabinoid receptor 1 [1]) | Ki (Cannabinoid receptor 1 [2]) | Ki (Cannabinoid receptor 2) | Ratio Ki (Homo sapiens) | EC50 (Cannabinoid receptor 1 [3]) |
| --- | --- | --- | --- | --- | --- |
| Cc1c(C(=O)N2CCN(C)CC2)oc2ccc(S(=O)(=O)N3CC(C)CC(C)C3)cc12 (stereo not drawn) | 27% | – | – | – | – |
| CCN(CC)CCCNC(=O)c1oc2ccc(S(=O)(=O)N3CC(C)CC(C)C3)cc2c1C (stereo not drawn) | < 1% | – | – | – | – |
| CCN(CC)C(=O)c1oc2ccc(S(=O)(=O)N3CC(C)CC(C)C3)cc2c1C (stereo not drawn) | 89% | – | – | – | – |
| CCN(CC)S(=O)(=O)c1ccc2oc(C(=O)N(C)Cc3ccccc3)c(C)c2c1 | 11% | – | – | – | – |
| Cc1c(C(=O)NCc2ccccc2Cl)oc2ccc(S(=O)(=O)N3CC(C)CC(C)C3)cc12 (stereo not drawn) | 95% | 58 nM | 4800 nM | 83 | – |
| Cc1cccc(NC(=O)c2oc3ccc(S(=O)(=O)N4CC(C)CC(C)C4)cc3c2C)c1C (stereo not drawn) | 84% | – | – | – | – |
| Cc1c(C(=O)NC2CC2)oc2ccc(S(=O)(=O)N3CC(C)CC(C)C3)cc12 (stereo not drawn) | 83% | – | – | – | – |
| Cc1c(C(=O)NCc2ccccn2)oc2ccc(S(=O)(=O)N3CC(C)CC(C)C3)cc12 (stereo not drawn) | 10% | – | – | – | – |
| Cc1c(C(=O)N(C)Cc2ccccc2)oc2ccc(S(=O)(=O)N3CC(C)CC(C)C3)cc12 (stereo not drawn) | 93% | 59 nM | 6600 nM | 112 | – |
| Cc1c(C(=O)NC2CCCc3ccccc32)oc2ccc(S(=O)(=O)N3CC(C)CC(C)C3)cc12 (stereo not drawn) | 96% | 5 nM | 22800 nM | 4560 | 72.4 nM |
| Cc1c(C(=O)NCc2cccnc2)oc2ccc(S(=O)(=O)N3CC(C)CC(C)C3)cc12 (stereo not drawn) | 46% | – | – | – | – |
| Cc1c(C(=O)Nc2ccccc2Cl)oc2ccc(S(=O)(=O)N3CC(C)CC(C)C3)cc12 (stereo not drawn) | 44% | – | – | – | – |
| Cc1c(C(=O)N(C)Cc2ccccc2)oc2ccc(S(=O)(=O)N3CCCC3)cc12 | 20% | – | – | – | – |
| Cc1c(C(=O)N2CCCCCC2)oc2ccc(S(=O)(=O)N3CC(C)CC(C)C3)cc12 (stereo not drawn) | 90% | 193 nM | 4900 nM | 25 | – |
| COc1ccccc1CNC(=O)c1oc2ccc(S(=O)(=O)N3CC(C)CC(C)C3)cc2c1C (stereo not drawn) | 97% | 58 nM | 22800 nM | 393 | – |
| Cc1c(C(=O)Nc2cccc(Cl)c2)oc2ccc(S(=O)(=O)N3CC(C)CC(C)C3)cc12 (stereo not drawn) | 70% | – | – | – | – |
| CCOc1ccccc1CNC(=O)c1oc2ccc(S(=O)(=O)N3CC(C)CC(C)C3)cc2c1C (stereo not drawn) | 96% | 97 nM | 9900 nM | 102 | – |
| Cc1c(C(=O)N(C)CCC#N)oc2ccc(S(=O)(=O)N3CC(C)CC(C)C3)cc12 (stereo not drawn) | 50% | – | – | – | – |
| Cc1c(C(=O)NCCc2ccccc2)oc2ccc(S(=O)(=O)N3CC(C)CC(C)C3)cc12 (stereo not drawn) | 92% | 198 nM | 6000 nM | 30 | – |
| Cc1c(C(=O)NCc2ccc(F)cc2)oc2ccc(S(=O)(=O)N3CC(C)CC(C)C3)cc12 (stereo not drawn) | 95% | 62 nM | 4000 nM | 65 | – |
| Cc1c(C(=O)NC2CCCC2)oc2ccc(S(=O)(=O)N3CC(C)CC(C)C3)cc12 (stereo not drawn) | 95% | 90 nM | 7400 nM | 82 | – |
| Cc1c(C(=O)N(C)CCc2ccccc2)oc2ccc(S(=O)(=O)N3CC(C)CC(C)C3)cc12 (stereo not drawn) | 92% | 172 nM | – | – | – |
| COc1ccc(Cl)cc1NC(=O)c1oc2ccc(S(=O)(=O)N3CC(C)CC(C)C3)cc2c1C (stereo not drawn) | 12% | – | – | – | – |
| Cc1c(C(=O)NCc2ccccc2)oc2ccc(S(=O)(=O)N3CC(C)CC(C)C3)cc12 (stereo not drawn) | 92% | 77 nM | 6600 nM | 86 | – |
| Cc1c(C(=O)NC2CCCCC2)oc2ccc(S(=O)(=O)N3CC(C)CC(C)C3)cc12 (stereo not drawn) | 95% | 108 nM | 17400 nM | 161 | – |
| CCCCNC(=O)c1oc2ccc(S(=O)(=O)N3CC(C)CC(C)C3)cc2c1C (stereo not drawn) | 92% | 94 nM | 9400 nM | 100 | – |
| CCN(Cc1ccccc1)C(=O)c1oc2ccc(S(=O)(=O)N3CC(C)CC(C)C3)cc2c1C (stereo not drawn) | 98% | 92 nM | 3100 nM | 34 | 435 nM |
| Cc1ccc(CNC(=O)c2oc3ccc(S(=O)(=O)N4CC(C)CC(C)C4)cc3c2C)cc1 (stereo not drawn) | 93% | 79 nM | 19100 nM | 242 | – |
